How the values were obtained:
Rattus norvegicus [1] = assay: Hypotensive activity in normotensive anesthetized Wistar rat assessed as systolic blood pressure at 1 mg/kg, iv measured 5 mins post dose (reference value: 107.4 to 148.3 mmHg); type: functional
Rattus norvegicus [2] = assay: Hypotensive activity in normotensive anesthetized Wistar rat assessed as systolic blood pressure at 1 mg/kg, iv measured 30 mins post dose (reference value: 107.4 to 148.3 mmHg); type: functional
Rattus norvegicus [3] = assay: Hypotensive activity in normotensive anesthetized Wistar rat assessed as diastolic blood pressure at 1 mg/kg, iv measured 20 mins post dose (reference value: 81.6 to 115.2 mmHg); type: functional
[4] = molecular target: T1, Adrenergic receptor alpha-2 (Rattus norvegicus, UniProt P22086+P19328+P22909); assay: Displacement of [3H]clonidine from alpha2 adrenergic receptor in rat brain cerebral cortex after 25 mins by microbeta scintillation counting method; type: tissue-based
T1 sequence (P22086 whole entry): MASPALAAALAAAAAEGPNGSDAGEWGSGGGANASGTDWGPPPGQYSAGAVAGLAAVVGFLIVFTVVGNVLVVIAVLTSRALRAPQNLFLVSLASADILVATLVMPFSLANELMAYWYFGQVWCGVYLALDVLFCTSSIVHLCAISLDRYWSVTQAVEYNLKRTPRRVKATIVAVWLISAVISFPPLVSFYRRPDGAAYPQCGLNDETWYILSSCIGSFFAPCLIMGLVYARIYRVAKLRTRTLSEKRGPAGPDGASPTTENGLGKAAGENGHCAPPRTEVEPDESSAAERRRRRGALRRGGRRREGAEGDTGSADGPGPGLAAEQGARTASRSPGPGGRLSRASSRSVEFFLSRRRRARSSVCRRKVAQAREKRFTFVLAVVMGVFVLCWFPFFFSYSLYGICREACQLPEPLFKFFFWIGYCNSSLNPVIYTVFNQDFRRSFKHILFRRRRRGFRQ
T1 sequence (P19328 whole entry): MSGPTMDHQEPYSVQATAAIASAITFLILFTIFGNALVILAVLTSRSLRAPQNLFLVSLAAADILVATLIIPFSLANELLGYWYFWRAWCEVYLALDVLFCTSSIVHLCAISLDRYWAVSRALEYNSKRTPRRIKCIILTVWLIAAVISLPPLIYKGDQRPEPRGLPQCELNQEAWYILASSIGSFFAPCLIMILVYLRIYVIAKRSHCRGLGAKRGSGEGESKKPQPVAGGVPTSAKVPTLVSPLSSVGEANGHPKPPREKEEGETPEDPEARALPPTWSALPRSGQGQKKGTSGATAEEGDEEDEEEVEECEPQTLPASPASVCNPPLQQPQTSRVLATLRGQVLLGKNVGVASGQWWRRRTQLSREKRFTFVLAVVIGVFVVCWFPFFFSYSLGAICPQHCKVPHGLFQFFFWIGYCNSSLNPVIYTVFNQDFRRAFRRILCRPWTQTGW
T1 sequence (P22909 whole entry): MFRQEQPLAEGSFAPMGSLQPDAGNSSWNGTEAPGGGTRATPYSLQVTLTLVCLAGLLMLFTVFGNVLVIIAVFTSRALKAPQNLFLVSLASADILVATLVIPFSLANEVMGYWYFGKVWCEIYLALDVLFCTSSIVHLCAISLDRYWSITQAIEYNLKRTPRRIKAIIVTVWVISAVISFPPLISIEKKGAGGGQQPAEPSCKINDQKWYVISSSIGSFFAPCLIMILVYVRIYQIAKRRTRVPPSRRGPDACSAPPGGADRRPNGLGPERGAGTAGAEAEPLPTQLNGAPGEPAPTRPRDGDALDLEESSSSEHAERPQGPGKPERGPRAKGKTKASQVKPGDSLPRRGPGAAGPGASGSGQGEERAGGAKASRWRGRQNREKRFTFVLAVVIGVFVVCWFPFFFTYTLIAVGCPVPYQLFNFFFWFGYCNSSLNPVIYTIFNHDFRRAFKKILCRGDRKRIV

[5] = Antidepressant-like activity in albino Swiss (CD-1) mouse assessed as immobility time at 10 mg/kg, ip administered 30 mins prior to test measured for last 4 mins of 6 mins observation by forced swim test (reference value: 178.3 +/- 12.3 sec); type: functional, organism-based
Rattus norvegicus [6] = assay: Hypotensive activity in normotensive anesthetized Wistar rat assessed as systolic blood pressure at 1 mg/kg, iv measured 10 mins post dose (reference value: 107.4 to 148.3 mmHg); type: functional
Rattus norvegicus [7] = assay: Hypotensive activity in normotensive anesthetized Wistar rat assessed as systolic blood pressure at 1 mg/kg, iv measured 60 mins post dose (reference value: 107.4 to 148.3 mmHg); type: functional
Rattus norvegicus [8] = assay: Hypotensive activity in normotensive anesthetized Wistar rat assessed as diastolic blood pressure at 1 mg/kg, iv measured 60 mins post dose (reference value: 81.6 to 115.2 mmHg); type: functional
Rattus norvegicus [9] = assay: Hypotensive activity in normotensive anesthetized Wistar rat assessed as diastolic blood pressure at 1 mg/kg, iv measured 5 mins post dose (reference value: 81.6 to 115.2 mmHg); type: functional

| SMILES | Activity (Rattus norvegicus [1]) [mmHg] | Activity (Rattus norvegicus [2]) [mmHg] | Activity (Rattus norvegicus [3]) [mmHg] | Ki [4] [nM] | TIME [5] [h] | Activity (Rattus norvegicus [6]) [mmHg] | Activity (Rattus norvegicus [7]) [mmHg] | Activity (Rattus norvegicus [8]) [mmHg] | Activity (Rattus norvegicus [9]) [mmHg] |
| --- | --- | --- | --- | --- | --- | --- | --- | --- | --- |
| Cc1cccc(OCCCN2CCN(c3ccccc3)CC2)c1C.Cl.Cl | 143.8 | 135.8 | 110.8 | 810 | 0.048 | 138 | 133.3 | 109.7 | 111.8 |
| Cc1cccc(Cl)c1OCCCCN1CCN(c2ccccc2)CC1.Cl.Cl | 129.3 | 123.5 | 98.8 | 505.7 | 0.0193 | 127.7 | 120 | 95.2 | 103.7 |
| COc1ccccc1N1CCN(CCOCCOc2cccc(C)c2C)CC1.Cl.Cl | 129.8 | 131 | 105.4 | 893 | 0.0331 | 131 | 132.6 | 104 | 105 |
| COc1ccccc1N1CCN(CCCCOc2c(C)cccc2C)CC1.Cl | 129.5 | 125.5 | 103 | 370.5 | 0.0398 | 126.2 | 124.7 | 103.8 | 109.8 |
| Cc1cccc(OCCN2CCN(c3ccccc3)CC2)c1C.Cl.Cl | 99.8 | 93 | 71.8 | 289 | 0.0446 | 97.2 | 93.4 | 67.6 | 75.2 |

Reference: ChEMBL document CHEMBL3860091, “Synthesis and activity of newly designed aroxyalkyl or aroxyethoxyethyl derivatives of piperazine on the cardiovascular and the central nervous systems” (Bioorg Med Chem Lett, 2016)
